Experimental data from ChEMBL document CHEMBL1240419, “Synthesis and antibacterial activity of 3-O-carbamoyl derivatives of 6,11-di-O-methylerythromycin A: a novel class of acylides” (2010).
Values after ≈ are worked out from the molar mass of the structure shown.

Legend:
Assay type in all cases: functional
Streptococcus pneumoniae [1] = assay: Antibacterial activity against erythromycin-susceptible Streptococcus pneumoniae ATCC 49619 by broth microdilution method
Staphylococcus aureus [2] = assay: Antibacterial activity against erythromycin-susceptible Staphylococcus aureus ATCC 25923 by broth microdilution method
Haemophilus influenzae [3] = assay: Antibacterial activity against ampicillin-susceptible Haemophilus influenzae ATCC 49247 by broth microdilution method
Staphylococcus aureus [4] = assay: Antibacterial activity against erythromycin-resistant, methicillin-susceptible Staphylococcus aureus A265 by broth microdilution method
Staphylococcus aureus [5] = assay: Antibacterial activity against erythromycin, methicillin-resistant Staphylococcus aureus A333 by broth microdilution method
Haemophilus influenzae [6] = assay: Antibacterial activity against ampicillin-resistant Haemophilus influenzae 3300 by broth microdilution method
Streptococcus pneumoniae [7] = assay: Antibacterial activity against erythromycin-resistant Streptococcus pneumoniae 3469 by broth microdilution method

Row | Compound | MIC (Streptococcus pneumoniae [1]) [µg/mL] | MIC (Staphylococcus aureus [2]) [µg/mL] | MIC (Haemophilus influenzae [3]) [µg/mL] | MIC (Staphylococcus aureus [4]) [µg/mL] | MIC (Staphylococcus aureus [5]) [µg/mL] | MIC (Haemophilus influenzae [6]) [µg/mL] | MIC (Streptococcus pneumoniae [7]) [µg/mL]
1 | CCCNC(=O)O[C@H]1[C@H](C)[C@@H](O[C@@H]2O[C@H](C)C[C@H](N(C)C)[C@H]2O)[C@](C)(OC)C[C@@H](C)C(=O)[C@@H](C)[C@@H](OC)[C@](C)(O)[C@@H](CC)OC(=O)[C@@H]1C | 0.125 (≈ 0.181 µM) | 2 (≈ 2.9 µM) | > 64 | 1 (≈ 1.45 µM) | > 64 | 64 (≈ 92.9 µM) | 0.125 (≈ 0.181 µM)
2 | CCCCNC(=O)O[C@H]1[C@H](C)[C@@H](O[C@@H]2O[C@H](C)C[C@H](N(C)C)[C@H]2O)[C@](C)(OC)C[C@@H](C)C(=O)[C@@H](C)[C@@H](OC)[C@](C)(O)[C@@H](CC)OC(=O)[C@@H]1C | 0.125 (≈ 0.178 µM) | 1 (≈ 1.42 µM) | 4 (≈ 5.69 µM) | 1 (≈ 1.42 µM) | > 64 | 4 (≈ 5.69 µM) | 0.125 (≈ 0.178 µM)
3 | CCCCCNC(=O)O[C@H]1[C@H](C)[C@@H](O[C@@H]2O[C@H](C)C[C@H](N(C)C)[C@H]2O)[C@](C)(OC)C[C@@H](C)C(=O)[C@@H](C)[C@@H](OC)[C@](C)(O)[C@@H](CC)OC(=O)[C@@H]1C | 0.125 (≈ 0.174 µM) | 2 (≈ 2.79 µM) | 4 (≈ 5.58 µM) | 4 (≈ 5.58 µM) | > 64 | 4 (≈ 5.58 µM) | 0.25 (≈ 0.349 µM)
4 | CC[C@H]1OC(=O)[C@H](C)[C@@H](OC(=O)NC2CCCCC2)[C@H](C)[C@@H](O[C@@H]2O[C@H](C)C[C@H](N(C)C)[C@H]2O)[C@](C)(OC)C[C@@H](C)C(=O)[C@@H](C)[C@@H](OC)[C@]1(C)O | 0.125 (≈ 0.171 µM) | 8 (≈ 11 µM) | 4 (≈ 5.49 µM) | 2 (≈ 2.74 µM) | > 64 | 4 (≈ 5.49 µM) | 0.125 (≈ 0.171 µM)
5 | CC[C@H]1OC(=O)[C@H](C)[C@@H](OC(=O)NCCCOC)[C@H](C)[C@@H](O[C@@H]2O[C@H](C)C[C@H](N(C)C)[C@H]2O)[C@](C)(OC)C[C@@H](C)C(=O)[C@@H](C)[C@@H](OC)[C@]1(C)O | 0.125 (≈ 0.174 µM) | 8 (≈ 11.1 µM) | 32 (≈ 44.5 µM) | 4 (≈ 5.56 µM) | > 64 | 16 (≈ 22.3 µM) | 0.125 (≈ 0.174 µM)
6 | CCOCCCNC(=O)O[C@H]1[C@H](C)[C@@H](O[C@@H]2O[C@H](C)C[C@H](N(C)C)[C@H]2O)[C@](C)(OC)C[C@@H](C)C(=O)[C@@H](C)[C@@H](OC)[C@](C)(O)[C@@H](CC)OC(=O)[C@@H]1C | 0.125 (≈ 0.171 µM) | 8 (≈ 10.9 µM) | 8 (≈ 10.9 µM) | 8 (≈ 10.9 µM) | > 64 | 8 (≈ 10.9 µM) | 0.125 (≈ 0.171 µM)
7 | CC[C@H]1OC(=O)[C@H](C)[C@@H](OC(=O)NCCCOC(C)C)[C@H](C)[C@@H](O[C@@H]2O[C@H](C)C[C@H](N(C)C)[C@H]2O)[C@](C)(OC)C[C@@H](C)C(=O)[C@@H](C)[C@@H](OC)[C@]1(C)O | 0.5 (≈ 0.669 µM) | 4 (≈ 5.35 µM) | 16 (≈ 21.4 µM) | 4 (≈ 5.35 µM) | > 64 | 32 (≈ 42.8 µM) | 8 (≈ 10.7 µM)
8 | CCCCOCCCNC(=O)O[C@H]1[C@H](C)[C@@H](O[C@@H]2O[C@H](C)C[C@H](N(C)C)[C@H]2O)[C@](C)(OC)C[C@@H](C)C(=O)[C@@H](C)[C@@H](OC)[C@](C)(O)[C@@H](CC)OC(=O)[C@@H]1C | 2 (≈ 2.63 µM) | 4 (≈ 5.26 µM) | 32 (≈ 42 µM) | 16 (≈ 21 µM) | > 64 | 64 (≈ 84.1 µM) | > 64
9 | CC[C@H]1OC(=O)[C@H](C)[C@@H](OC(=O)NCCCO)[C@H](C)[C@@H](O[C@@H]2O[C@H](C)C[C@H](N(C)C)[C@H]2O)[C@](C)(OC)C[C@@H](C)C(=O)[C@@H](C)[C@@H](OC)[C@]1(C)O | 1 (≈ 1.42 µM) | 4 (≈ 5.67 µM) | 32 (≈ 45.4 µM) | 16 (≈ 22.7 µM) | > 64 | 32 (≈ 45.4 µM) | 8 (≈ 11.3 µM)
10 | CC[C@H]1OC(=O)[C@H](C)[C@@H](OC(=O)NCc2ccco2)[C@H](C)[C@@H](O[C@@H]2O[C@H](C)C[C@H](N(C)C)[C@H]2O)[C@](C)(OC)C[C@@H](C)C(=O)[C@@H](C)[C@@H](OC)[C@]1(C)O | 0.5 (≈ 0.688 µM) | 2 (≈ 2.75 µM) | 2 (≈ 2.75 µM) | 1 (≈ 1.38 µM) | > 64 | 2 (≈ 2.75 µM) | 16 (≈ 22 µM)
11 | CC[C@H]1OC(=O)[C@H](C)[C@@H](OC(=O)Nc2nccs2)[C@H](C)[C@@H](O[C@@H]2O[C@H](C)C[C@H](N(C)C)[C@H]2O)[C@](C)(OC)C[C@@H](C)C(=O)[C@@H](C)[C@@H](OC)[C@]1(C)O | 0.125 (≈ 0.171 µM) | 32 (≈ 43.8 µM) | 32 (≈ 43.8 µM) | 32 (≈ 43.8 µM) | > 64 | 32 (≈ 43.8 µM) | 8 (≈ 11 µM)
12 | CC[C@H]1OC(=O)[C@H](C)[C@@H](OC(=O)NCc2ccccc2)[C@H](C)[C@@H](O[C@@H]2O[C@H](C)C[C@H](N(C)C)[C@H]2O)[C@](C)(OC)C[C@@H](C)C(=O)[C@@H](C)[C@@H](OC)[C@]1(C)O | 0.125 (≈ 0.17 µM) | 2 (≈ 2.71 µM) | 8 (≈ 10.9 µM) | 0.125 (≈ 0.17 µM) | > 64 | 4 (≈ 5.43 µM) | 0.125 (≈ 0.17 µM)
13 | CC[C@H]1OC(=O)[C@H](C)[C@@H](OC(=O)NCc2ccc(OC)cc2)[C@H](C)[C@@H](O[C@@H]2O[C@H](C)C[C@H](N(C)C)[C@H]2O)[C@](C)(OC)C[C@@H](C)C(=O)[C@@H](C)[C@@H](OC)[C@]1(C)O | 0.5 (≈ 0.652 µM) | 0.125 (≈ 0.163 µM) | 1 (≈ 1.3 µM) | 0.125 (≈ 0.163 µM) | > 64 | 0.5 (≈ 0.652 µM) | 0.5 (≈ 0.652 µM)
14 | CC[C@H]1OC(=O)[C@H](C)[C@@H](OC(=O)NCc2ccc(F)cc2)[C@H](C)[C@@H](O[C@@H]2O[C@H](C)C[C@H](N(C)C)[C@H]2O)[C@](C)(OC)C[C@@H](C)C(=O)[C@@H](C)[C@@H](OC)[C@]1(C)O | 0.125 (≈ 0.166 µM) | 4 (≈ 5.3 µM) | 4 (≈ 5.3 µM) | 0.125 (≈ 0.166 µM) | > 64 | 4 (≈ 5.3 µM) | 0.125 (≈ 0.166 µM)
15 | CC[C@H]1OC(=O)[C@H](C)[C@@H](OC(=O)NCc2ccc(Cl)cc2)[C@H](C)[C@@H](O[C@@H]2O[C@H](C)C[C@H](N(C)C)[C@H]2O)[C@](C)(OC)C[C@@H](C)C(=O)[C@@H](C)[C@@H](OC)[C@]1(C)O | 0.125 (≈ 0.162 µM) | 4 (≈ 5.19 µM) | 2 (≈ 2.59 µM) | 0.125 (≈ 0.162 µM) | > 64 | 4 (≈ 5.19 µM) | 0.5 (≈ 0.648 µM)
16 | CC[C@H]1OC(=O)[C@H](C)[C@@H](OC(=O)NCc2ccc(Br)cc2)[C@H](C)[C@@H](O[C@@H]2O[C@H](C)C[C@H](N(C)C)[C@H]2O)[C@](C)(OC)C[C@@H](C)C(=O)[C@@H](C)[C@@H](OC)[C@]1(C)O | 0.125 (≈ 0.153 µM) | 0.125 (≈ 0.153 µM) | 2 (≈ 2.45 µM) | 0.125 (≈ 0.153 µM) | 32 (≈ 39.2 µM) | 2 (≈ 2.45 µM) | 0.125 (≈ 0.153 µM)
17 | CC[C@H]1OC(=O)[C@H](C)[C@@H](OC(=O)NCc2ccc(O)cc2)[C@H](C)[C@@H](O[C@@H]2O[C@H](C)C[C@H](N(C)C)[C@H]2O)[C@](C)(OC)C[C@@H](C)C(=O)[C@@H](C)[C@@H](OC)[C@]1(C)O | 1 (≈ 1.33 µM) | 1 (≈ 1.33 µM) | 1 (≈ 1.33 µM) | 0.25 (≈ 0.332 µM) | > 64 | 1 (≈ 1.33 µM) | 32 (≈ 42.5 µM)
18 | CC[C@H]1OC(=O)[C@H](C)[C@@H](OC(=O)NCc2ccc(C)cc2)[C@H](C)[C@@H](O[C@@H]2O[C@H](C)C[C@H](N(C)C)[C@H]2O)[C@](C)(OC)C[C@@H](C)C(=O)[C@@H](C)[C@@H](OC)[C@]1(C)O | 0.125 (≈ 0.166 µM) | 0.25 (≈ 0.333 µM) | 4 (≈ 5.33 µM) | 0.125 (≈ 0.166 µM) | 64 (≈ 85.2 µM) | 4 (≈ 5.33 µM) | 0.25 (≈ 0.333 µM)
